Test results taken from DBAASP.
In brackets after ≈: the same amount, converted by molar mass. Several values for one entry are separate records, joined by “and”; a condition that tells them apart may be missing. Identical values can stand only once.

Legend:
Experiment in all cases: ≥ marks a high value that may be exact or a test limit, other limits are often not marked, values filed in µg/mL are converted to µM
[1] = system: Staphylococcus aureus ATCC 29213
Escherichia coli 1005 = system: Escherichia coli 1005
[2] = system: Staphylococcus epidermidis ATCC 12228
[3] = system: Salmonella enterica subsp. enterica serovar Typhimurium ATCC 14028
[4] = system: Escherichia coli ATCC 25922
Candida albicans = system: Candida albicans
[5] = system: Staphylococcus aureus ATCC 43300
[6] = system: Salmonella enterica subsp. enterica serovar Pullorum ATCC 7913
[7] = system: Candida krusei CGMCC 2.1857
[8] = system: Candida parapsilosis CGMCC 2.3989
[9] = system: Staphylococcus aureus ATCC 25923
[10] = system: Candida tropicalis CGMCC 2.1975
[11] = system: Klebsiella pneumoniae ATCC 10031
[12] = system: Staphylococcus aureus ATCC 6538P
[13] = system: Shigella dysenteriae ATCC 9752
[14] = system: Bacillus subtilis ATCC 6633
[15] = system: Pseudomonas aeruginosa ATCC 27853
[16] = system: Micrococcus luteus ATCC 10240
[17] = system: Klebsiella pneumoniae ATCC 43816
[18] = system: Staphylococcus aureus NCTC 10788
[19] = system: Escherichia coli NCTC 10418
[20] = system: Enterococcus faecalis NCTC 12697
[21] = system: Staphylococcus aureus NCTC 12493
[22] = system: Candida albicans NCYC 1467
[23] = system: Staphylococcus aureus FDA 209P
Escherichia coli BW25113 = system: Escherichia coli BW25113
[24] = system: Bacillus anthracis Sterne 34F2
Escherichia coli K91BK = system: Escherichia coli K91BK
[25] = system: Bacillus subtilis var. niger ATCC 9372
[26] = system: Staphylococcus aureus ATCC 8530
Escherichia coli W160-37 = system: Escherichia coli W160-37

## CC(C)C[C@H](NC(=O)[C@H](CCCN=C(N)N)NC(=O)[C@H](CC(C)C)NC(=O)[C@H](CC(C)C)NC(=O)[C@H](CC(C)C)NC(=O)[C@H](CCCN=C(N)N)NC(=O)[C@H](CC(C)C)NC(=O)[C@@H](N)CCCN=C(N)N)C(=O)N[C@@H](CCCN=C(N)N)C(N)=O [RLRLLLRLR]
[1]
  MIC: 8 µM (≈ 9.66 µg/mL)
Escherichia coli 1005
  MIC: 4 µM (≈ 4.83 µg/mL)
[2]
  MIC: 4 µM (≈ 4.83 µg/mL)
[3]
  MIC: 4 µM (≈ 4.83 µg/mL)
[4]
  MIC: 4 µM and 8 µM
Candida albicans
  MIC: 8 µM (≈ 9.66 µg/mL)
[5]
  MIC: 4 µM (≈ 4.83 µg/mL)
[6]
  MIC: 4 µM (≈ 4.83 µg/mL)
[7]
  MIC: 8 µM (≈ 9.66 µg/mL)
[8]
  MIC: ≥ 64 µM
[9]
  MIC: 8 µM (≈ 9.66 µg/mL)
[10]
  MIC: 2 µM (≈ 2.42 µg/mL)

## CC(C)C[C@H](NC(=O)[C@H](CC(C)C)NC(=O)[C@H](CCCCN)NC(=O)[C@H](CC(C)C)NC(=O)[C@H](CC(C)C)NC(=O)[C@H](Cc1c[nH]c2ccccc12)NC(=O)[C@H](CCCCN)NC(=O)[C@H](CC(C)C)NC(=O)[C@H](CC(C)C)NC(=O)[C@H](CCCCN)NC(=O)[C@@H](N)CC(C)C)C(N)=O [LKLLKWLLKLL]
[11]
  MIC: ≥ 36.2 µM
[12]
  MIC: 2.25 µM (≈ 3.1 µg/mL)
[2]
  MIC: 2.25 µM (≈ 3.1 µg/mL)
[3]
  MIC: > 145 µM
[13]
  MIC: 9.05 µM (≈ 12.5 µg/mL)
[4]
  MIC: 36.2 µM (≈ 50 µg/mL)
[14]
  MIC: 1.16 µM (≈ 1.6 µg/mL)
[15]
  MIC: > 145 µM
[16]
  MIC: 2.25 µM (≈ 3.1 µg/mL)

## CC[C@H](C)[C@@H]1NC(=O)[C@H](C)NC(=O)[C@@H](NC(=O)[C@H](Cc2ccccc2)NC(=O)[C@@H](NC(=O)[C@H](CCCCN)NC(=O)[C@@H]2CCCN2C(=O)[C@H](CC(C)C)NC(=O)[C@H](Cc2ccccc2)NC(=O)[C@H](CCCCN)NC(=O)[C@@H](N)CCCCN)[C@@H](C)CC)CSSC[C@@H](C(=O)O)NC(=O)[C@H](CCCCN)NC(=O)[C@H](CCCCN)NC(=O)[C@H]([C@@H](C)O)NC1=O [KKFLPKIFCAITKKC]
[17]
  MIC: ≥ 128 µM
[18]
  MIC: 8 µM (≈ 14.1 µg/mL)
[19]
  MIC: 16 µM (≈ 28.3 µg/mL)
[20]
  MIC: ≥ 512 µM
[21]
  MIC: 16 µM (≈ 28.3 µg/mL)
[22]
  MIC: ≥ 32 µM
[15]
  MIC: 256 µM (≈ 452 µg/mL)

## CC[C@H](C)[C@H](NC(=O)[C@H](C)NC(=O)CNC(=O)[C@H](Cc1ccccc1)NC(=O)[C@H](CC(C)C)NC(=O)[C@H](CC(C)C)NC(=O)[C@@H]1CCCN1C(=O)[C@H](CC(C)C)NC(=O)[C@@H](N)Cc1ccccc1)C(=O)N[C@@H](CO)C(=O)N[C@@H](Cc1cnc[nH]1)C(=O)N[C@@H](CC(C)C)C(=O)N[C@@H](CC(C)C)C(N)=O [FLPLLFGAISHLL]
[23]
  MIC: 30.7 µM (≈ 44.3 µg/mL)
[14]
  MIC: ≥ 44.4 µM

## CC[C@H](C)[C@H](NC(=O)[C@@H]1CCCN1C(=O)[C@H](CCCN=C(N)N)NC(=O)[C@H](CCCN=C(N)N)NC(=O)[C@H](Cc1c[nH]c2ccccc12)NC(=O)[C@@H](N)CCCN=C(N)N)C(=O)N[C@@H](CCCN=C(N)N)C(=O)N[C@@H](CCCN=C(N)N)C(=O)N1CCC[C@H]1C(=O)N1CCC[C@H]1C(=O)N[C@H](C(=O)N[C@@H](CCCN=C(N)N)C(=O)N1CCC[C@H]1C(=O)N1CCC[C@H]1C(=O)N[C@@H](Cc1ccccc1)C(=O)N[C@@H](Cc1ccc(O)cc1)C(=O)N[C@@H](CCCN=C(N)N)C(=O)O)[C@@H](C)CC [RWRRPIRRPPIRPPFYR]
Escherichia coli BW25113
  MIC: 8 µM (≈ 18.6 µg/mL)

## NC(=O)[C@H](CCCN=C(N)N)NC(=O)[C@H](CCCN=C(N)N)NC(=O)[C@H](Cc1ccccc1)NC(=O)[C@H](CCCN=C(N)N)NC(=O)[C@H](Cc1ccccc1)NC(=O)[C@H](Cc1ccccc1)NC(=O)[C@H](Cc1ccccc1)NC(=O)[C@H](CCCN=C(N)N)NC(=O)[C@H](Cc1ccccc1)NC(=O)[C@H](CCCN=C(N)N)NC(=O)[C@@H](N)CCCN=C(N)N [RRFRFFFRFRR]
[1]
  MIC: 4 µM (≈ 6.76 µg/mL)
Escherichia coli 1005
  MIC: 4 µM (≈ 6.76 µg/mL)
[2]
  MIC: 4 µM (≈ 6.76 µg/mL)
[3]
  MIC: 4 µM (≈ 6.76 µg/mL)
[4]
  MIC: 4 µM and > 2 µM
Candida albicans
  MIC: 2.83 µM (≈ 4.78 µg/mL)
[5]
  MIC: 4 µM (≈ 6.76 µg/mL)
[6]
  MIC: 2 µM (≈ 3.38 µg/mL)
[7]
  MIC: 2 µM (≈ 3.38 µg/mL)
[8]
  MIC: 16 µM (≈ 27 µg/mL)
[9]
  MIC: 8 µM (≈ 13.5 µg/mL)
[10]
  MIC: 1 µM (≈ 1.69 µg/mL)

## CC[C@H](C)[C@H](NC(=O)[C@@H]1CCCN1C(=O)[C@H](Cc1ccccc1)NC(=O)[C@H](CCCN=C(N)N)NC(=O)[C@H](Cc1ccccc1)NC(=O)[C@@H](N)CCCN=C(N)N)C(=O)N[C@@H](CCCN=C(N)N)C(=O)N[C@@H](CCCN=C(N)N)C(=O)N1CCC[C@H]1C(=O)N1CCC[C@H]1C(=O)N[C@H](C(=O)N[C@@H](CCCN=C(N)N)C(=O)N1CCC[C@H]1C(=O)N1CCC[C@H]1C(=O)N[C@@H](Cc1ccccc1)C(=O)N[C@@H](Cc1ccc(O)cc1)C(=O)N1CCC[C@H]1C(=O)O)[C@@H](C)CC [RFRFPIRRPPIRPPFYP]
Escherichia coli BW25113
  MIC: 8 µM (≈ 17.7 µg/mL)

## CC[C@H](C)[C@H](NC(=O)CNC(C)=O)C(=O)NCC(=O)N[C@@H](CCCCN)C(=O)N[C@@H](Cc1cnc[nH]1)C(=O)N[C@H](C(=O)NCC(=O)N[C@@H](CCCCN)C(=O)N[C@@H](C)C(=O)N[C@@H](CC(C)C)C(=O)N[C@@H](CCCCN)C(=O)NCC(=O)N[C@@H](CC(C)C)C(=O)N[C@@H](CCCCN)C(=O)NCC(=O)N[C@@H](CC(C)C)C(=O)N[C@@H](CC(C)C)C(=O)N[C@@H](CCCCN)C(=O)NCC(=O)N[C@@H](CC(C)C)C(=O)NCC(=O)N[C@@H](CCC(=O)O)C(=O)N[C@@H](CO)C(N)=O)C(C)C [GIGKHVGKALKGLKGLLKGLGES]
[24]
  MIC: ≥ 100 µM
Escherichia coli K91BK
  MIC: ≥ 100 µM
[25]
  MIC: ≥ 100 µM

## CC[C@H](C)[C@H](NC(=O)[C@H](CC(C)C)NC(=O)[C@H](CCC(N)=O)NC(=O)[C@H](CCCCN)NC(C)=O)C(=O)N[C@@H](CCCN=C(N)N)C(=O)N[C@@H](Cc1ccccc1)C(=O)N[C@@H](CC(C)C)C(=O)N[C@@H](CCCCN)C(=O)N[C@@H](CCCN=C(N)N)C(=O)N[C@@H](CC(C)C)C(=O)N[C@@H](CC(=O)O)C(=O)N[C@@H](CCCN=C(N)N)C(=O)N[C@@H](CC(N)=O)C(=O)N[C@@H](CC(C)C)C(=O)N[C@@H](Cc1c[nH]c2ccccc12)C(=O)NCC(=O)N[C@@H](CC(C)C)C(=O)N[C@@H](C)C(N)=O [KQLIRFLKRLDRNLWGLA]
[26]
  MIC: 11 µM (≈ 25.1 µg/mL)
Escherichia coli W160-37
  MIC: 4.5 µM (≈ 10.3 µg/mL)

## CC[C@H](C)[C@H](NC(=O)[C@H](CCCN=C(N)N)NC(=O)[C@@H](NC(=O)[C@@H](NC(=O)[C@@H](NC(=O)[C@H](CCCN=C(N)N)NC(=O)[C@@H](NC(=O)[C@@H](N)CCCN=C(N)N)[C@@H](C)CC)[C@@H](C)CC)[C@@H](C)CC)[C@@H](C)CC)C(=O)N[C@@H](CCCN=C(N)N)C(N)=O [RIRIIIRIR]
[1]
  MIC: 4 µM (≈ 4.83 µg/mL)
Escherichia coli 1005
  MIC: 4 µM (≈ 4.83 µg/mL)
[2]
  MIC: 4 µM (≈ 4.83 µg/mL)
[3]
  MIC: 4 µM (≈ 4.83 µg/mL)
Candida albicans
  MIC: 2 µM (≈ 2.42 µg/mL)
[5]
  MIC: 4 µM (≈ 4.83 µg/mL)
[6]
  MIC: 4 µM (≈ 4.83 µg/mL)
[7]
  MIC: 2 µM (≈ 2.42 µg/mL)
[8]
  MIC: 8 µM (≈ 9.66 µg/mL)
[9]
  MIC: 4 µM (≈ 4.83 µg/mL)
[10]
  MIC: 2 µM (≈ 2.42 µg/mL)

## CC[C@H](C)[C@H](NC(=O)[C@H](C)NC(=O)[C@H](C)NC(=O)[C@@H]1CCCN1C(=O)[C@@H](NC(=O)[C@H](CC(C)C)NC(=O)[C@H](CO)NC(=O)[C@H](CC(C)C)NC(=O)[C@@H](N)Cc1ccccc1)[C@@H](C)CC)C(=O)N[C@@H](CO)C(=O)N[C@@H](C)C(=O)N[C@H](C(=O)N[C@@H](CO)C(=O)N[C@@H](C)C(=O)N[C@@H](CC(C)C)C(=O)N[C@@H](C)C(=O)N[C@@H](CC(N)=O)C(=O)N[C@@H](Cc1cnc[nH]1)C(=O)N[C@@H](Cc1ccccc1)C(N)=O)C(C)C [FLSLIPAAISAVSALANHF]
[17]
  MIC: ≥ 512 µM
[18]
  MIC: ≥ 33 µM
[19]
  MIC: ≥ 264 µM
[20]
  MIC: ≥ 264 µM
[21]
  MIC: ≥ 33 µM
[22]
  MIC: ≥ 132 µM
[15]
  MIC: > 512 µM
